# According to patent US20220324835A1 (Nurix Therapeutics, Inc., priority 2018, published 2022):
# Read-outs that look alike come from different tables or passages of the source.
# Experiments:
# T-cell = assay: CD25 cell surface staining on T-cells stimulated with anti-CD3 antibody alone (Biological Example 2); assay type: cell-based; conditions: primary human total T-cells, baseline = anti-CD3/anti-CD28 stimulated cells without inhibitor, read-out: CD25 staining, Anti-CD3 stimulation, fold change over baseline; for fold induction at 1 µM: 1 μM compound
# T-cells = assay: In vivo activity: CD25 expression on CD4+ or CD8+ T-cells of mice stimulated with anti-CD3 antibody; conditions: 2 μg anti-CD3 antibody, 24 hours
# How it was run: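 C57BL/6 or BALB/c mice dosed with inhibitor (IV, IP, SC or PO, e.g. BID or TID), then stimulated with 2 μg anti-CD3 antibody. Plasma IL-2, IFNγ, TNFα at 8 h and CD25 on CD4+/CD8+ T-cells by flow cytometry at 24 h; fold change over vehicle plus anti-CD3, binned A–E.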
# primary human NK cells = assay: NK cell activation assessed by cytokine secretion (coculture with K562 NucRed target cells); assay type: cell-based; conditions: for fold induction at 0.625 µM: 0.625 μM compound; for fold induction at 2.5 µM: 2.5 μM compound
# How it was run: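 Primary NK cells from donor PBMC, IL-2 (60 ng/mL) overnight, then Cbl-b inhibitor (e.g. 10, 1 or 0.1 μM; DMSO <0.1%) for 1 h before 6 h coculture with K562 NucRed at effector:target ratios such as 5:1, 1:1 or 1:5. Supernatant IFNγ, TNFα, MIP1β measured by ELISA or Luminex; fold change over inhibitor-free baseline, >2.0-fold positive.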
# [1] = K562, NK cells cocultured with K562 NucRed, 1:1 E/T, read-out: IFNγ secretion, fold change over baseline
# [2] = K562, NK cells cocultured with K562 NucRed, 1:1 E/T, read-out: TNFα secretion, fold change over baseline
structure (smiles),measurement,setting,value
"Cn1cnnc1CC1(c2cccc(N3Cc4c(cc(CN5C[C@H]6C[C@H]6C5)cc4C(F)(F)F)C3=O)c2)COC1 [Compound 429, 6-(((1R,5S)-3-azabicyclo[3.1.0]hexan-3-yl)methyl)-2-(3-(3-((4-methyl-4H-1,2,4-triazol-3-yl)methyl)oxetan-3-yl)phenyl)-4-(trifluoromethyl)isoindolin-1-one]",fold induction at 1 µM,T-cell,> 1
same,fold induction at 8 µM,T-cell; 8 μM compound,> 1
same,CD4+ T-cell % CD25+,T-cells; 135 mpk PO BID,D (D indicates 1.00-1.50)
same,CD8+ T-cell % CD25+,T-cells; 135 mpk PO BID,D (D indicates 1.00-1.50)
"Cn1cnnc1CC1(c2cccc(N3Cc4c(cc(CN5CC6(CC6)C5)cc4C(F)(F)F)C3=O)c2)COC1 [Compound 487, 6-{5-azaspiro[2.3]hexan-5-ylmethyl}-2-(3-{3-[(4-methyl-1,2,4-triazol-3-yl)methyl]oxetan-3-yl}phenyl)-4-(trifluoromethyl)-3H-isoindol-1-one]",fold induction at 1 µM,T-cell,> 1
same,CD4+ T-cell % CD25+,T-cells; 135 mpk PO BID,C (C indicates 1.51-2.00)
same,CD8+ T-cell % CD25+,T-cells; 135 mpk PO BID,D (D indicates 1.00-1.50)
"Cn1cnnc1CC1(c2cccc(NC(=O)c3cc(CN4CC[C@H](F)C4)cc(C4CC4)n3)c2)COC1 [Compound 496, 6-cyclopropyl-4-{[(3S)-3-fluoropyrrolidin-1-yl]methyl}-N-(3-{3-[(4-methyl-1,2,4-triazol-3-yl)methyl]oxetan-3-yl}phenyl)pyridine-2-carboxamide]",fold induction at 1 µM,T-cell,> 1
same,CD4+ T-cell % CD25+,T-cells; 135 mpk PO BID,C (C indicates 1.51-2.00)
same,CD8+ T-cell % CD25+,T-cells; 135 mpk PO BID,D (D indicates 1.00-1.50)
"C[C@H](c1cc2c(c(C(F)(F)F)c1)CN(c1cccc(C3(Cc4nncn4C)COC3)c1)C2=O)N1CCC(C)(F)CC1 [Example 553b, (R)-6-(1-(4-fluoro-4-methylpiperidin-1-yl)ethyl)-2-(3-(3-((4-methyl-4H-1,2,4-triazol-3-yl)methyl)oxetan-3-yl)phenyl)-4-(trifluoromethyl)isoindolin-1-one]",fold induction at 1 µM,T-cell,> 1
same,CD4+ T-cell % CD25+,T-cells; 135 mpk PO BID,A (A indicates >2.50)
same,CD8+ T-cell % CD25+,T-cells; 135 mpk PO BID,D (D indicates 1.00-1.50)
"C[C@H](Cc1nncn1C)c1cccc(N2Cc3c(cccc3C(F)(F)F)C2=O)c1 [Compound 255a, (R)-2-(3-(1-(4-methyl-4H-1,2,4-triazol-3-yl)propan-2-yl)phenyl)-4-(trifluoromethyl)isoindolin-1-one]",CD4+ T-cell % CD25+,T-cells; 90 mpk IP BID,B (B indicates 2.01-2.50)
same,CD8+ T-cell % CD25+,T-cells; 90 mpk IP BID,D (D indicates 1.00-1.50)
same,CD4+ T-cell % CD25+,T-cells; 135 mpk PO BID,D (D indicates 1.00-1.50)
same,CD8+ T-cell % CD25+,T-cells; 135 mpk PO BID,E (E indicates <1.00)
same,fold induction at 1 µM,"primary human NK cells; K562, 1:1 E/T, read-out: IFNγ secretion",1.01 to 2
same,fold induction at 1 µM,"primary human NK cells; K562, 1:1 E/T, read-out: MIP1β secretion",< 1
same,fold induction at 1 µM,"primary human NK cells; K562, 1:1 E/T, read-out: TNFα secretion",< 1
same,fold induction at 10 µM,"primary human NK cells; K562, 1:1 E/T, 10 μM, read-out: IFNγ secretion",2.01 to 5
same,fold induction at 10 µM,"primary human NK cells; K562, 1:1 E/T, 10 μM, read-out: MIP1β secretion",1.01 to 2
same,fold induction at 10 µM,"primary human NK cells; K562, 1:1 E/T, 10 μM, read-out: TNFα secretion",< 1
same,fold induction at 1 µM,"primary human NK cells; K562, 5:1 E/T, read-out: IFNγ secretion",1.01 to 2
same,fold induction at 1 µM,"primary human NK cells; K562, 5:1 E/T, read-out: MIP1β secretion",< 1
same,fold induction at 1 µM,"primary human NK cells; K562, 5:1 E/T, read-out: TNFα secretion",< 1
same,fold induction at 10 µM,"primary human NK cells; K562, 5:1 E/T, 10 μM, read-out: IFNγ secretion",> 5
same,fold induction at 10 µM,"primary human NK cells; K562, 5:1 E/T, 10 μM, read-out: MIP1β secretion",1.01 to 2
same,fold induction at 10 µM,"primary human NK cells; K562, 5:1 E/T, 10 μM, read-out: TNFα secretion",< 1
same,fold induction at 0.625 µM,primary human NK cells; [1],1.01 to 2
same,fold induction at 0.625 µM,primary human NK cells; [2],1.01 to 2
same,fold induction at 2.5 µM,primary human NK cells; [1],1.01 to 2
same,fold induction at 2.5 µM,primary human NK cells; [2],1.01 to 2
same,fold induction at 10 µM,"primary human NK cells; K562, NK cells cocultured with K562 NucRed, 1:1 E/T, 10 μM compound, read-out: IFNγ secretion, fold change over baseline",2.01 to 5
same,fold induction at 10 µM,"primary human NK cells; K562, NK cells cocultured with K562 NucRed, 1:1 E/T, 10 μM compound, read-out: TNFα secretion, fold change over baseline",2.01 to 5
